Assay results reported in patent US12454534B2, “Pyrrolo[2,3-b]pyrazines as HPK1 inhibitor and the use thereof” (BEIGENE, LTD., priority 2019, dated 2025).

Biological target: T1, HPK1 kinase (aa1-346, Life Technologies) (Homo sapiens, UniProt Q92918)
T1 construct: HPK1 kinase (aa1-346, Life Technologies); purchased Life Technologies
T1 sequence (Q92918 1-346): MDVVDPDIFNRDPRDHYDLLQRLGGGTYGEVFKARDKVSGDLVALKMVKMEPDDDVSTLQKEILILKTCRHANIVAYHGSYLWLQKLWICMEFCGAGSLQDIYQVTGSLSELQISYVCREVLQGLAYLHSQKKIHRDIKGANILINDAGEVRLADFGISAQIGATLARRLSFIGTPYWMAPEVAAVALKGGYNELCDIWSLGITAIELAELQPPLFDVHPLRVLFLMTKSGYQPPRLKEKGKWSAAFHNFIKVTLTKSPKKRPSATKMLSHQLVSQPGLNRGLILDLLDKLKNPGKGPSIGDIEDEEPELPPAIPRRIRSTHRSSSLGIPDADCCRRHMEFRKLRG
Experiment: HPK1 Kinase Activity Assay at 1 mM ATP (TR-FRET)
Assay type: biochemical
Conditions: HPK1 40 nM, read-out: Enzymatic activity IC50
Protocol: HPK1 Kinase Activity Assay at 1 mM ATP
Compounds disclosed herein were tested for inhibition of HPK1 kinase (aa1-346, Life Technologies) activity in assays based on the time-resolved fluorescence-resonance energy transfer (TR-FRET) methodology. The assays were carried out in 384-well low volume black plates in a reaction mixture containing HPK1 kinase (40 nM), 1 mM ATP, 0.5 μM STK1 substrate and 0-10 μM compound in buffer containing 50 mM HEPES, 0.01% BSA, 0.1 mM Orthovanadate, 10 mM MgCl2, 1 mM DTT, pH=7.0, 0.005% Tween-20. The kinase was incubated with the compounds disclosed herein or DMSO for 60 minutes at room temperature and the reaction was initiated by the addition of ATP and STK1 substrate. After reaction at room temperature for 120 minutes, an equal volume of stop/detection solution was added according to the manufacturer's instruction (CisBio). The stop/detection solution contained STK Antibody-Cryptate and XL665-conjugated streptavidin in Detection Buffer. The TR-FRET signals (ratio of fluorescence emission at 665 nm over emission at 620 nm with excitation at 337 nm wavelength) were recorded on a PHERAstar FS plate reader (BMG Labtech). Phosphorylation of STK1 substrate led to the binding of STK Antibody-Cryptate to the biotinylated STK1 substrate, which places fluorescent donor (Eu^3+ cryptate) in close proximity to the accepter (Streptavidin-XL665), thus resulting in a high degree of fluorescence resonance energy transfer. The inhibition of HPK1 in presence of increasing concentrations of compounds was calculated based on the ratio of fluorescence at 665 nm to that at 620 nm. The IC50 for each compound was derived from fitting the data to the four-parameter logistic equation by Graphpad Prism software.

| IC50 | SMILES |
| --- | --- |
| 67 nM | Cc1cc(-c2c[nH]c3ncc(-c4cc(C)c5c(c4)CN(CCC(=O)NC4CCOCC4)CC5)nc23)ccc1C(=O)N(C)C [Example 28, N, N, 2-trimethyl-4-(2-(5-methyl-2-(3-oxo-3-(tetrahydro-2H-pyran-4-ylamino)propyl)-1,2,3,4-tetrahydroisoquinolin-7-yl)-5H-pyrrolo[2,3-b]pyrazin-7-yl)benzamide] |
| 46 nM | Cc1cc(-c2c[nH]c3ncc(-c4cc(C)c5c(c4)CN(CCC(=O)NC[C@@H](C)O)CC5)nc23)ccc1C(=O)N(C)C [Example 29, (R)-4-(2-(2-(3-(2-hydroxypropylamino)-3-oxopropyl)-5-methyl-1,2,3,4-tetrahydroisoquinolin-7-yl)-5H-pyrrolo[2,3-b]pyrazin-7-yl)-N, N, 2-trimethylbenzamide] |
| 63 nM | Cc1cc(-c2c[nH]c3ncc(-c4cc(C)c5c(c4)CN(CCC(=O)NC[C@H](C)O)CC5)nc23)ccc1C(=O)N(C)C [Example 30, (S)-4-(2-(2-(3-(2-hydroxypropylamino)-3-oxopropyl)-5-methyl-1,2,3,4-tetrahydroisoquinolin-7-yl)-5H-pyrrolo[2,3-b]pyrazin-7-yl)-N, N, 2-trimethylbenzamide] |
| 53 nM | Cc1cc(-c2c[nH]c3ncc(-c4cc(C)c5c(c4)CN(CCC(=O)NC4(CO)CC4)CC5)nc23)ccc1C(=O)N(C)C [Example 31, 4-(2-(2-(3-(1-(hydroxymethyl)cyclopropylamino)-3-oxopropyl)-5-methyl-1,2,3,4-tetrahydroisoquinolin-7-yl)-5H-pyrrolo[2,3-b]pyrazin-7-yl)-N, N, 2-trimethylbenzamide] |
| 71 nM | Cc1cc(-c2c[nH]c3ncc(-c4cc(C)c5c(c4)CN(CCC(=O)NCC4(O)CC4)CC5)nc23)ccc1C(=O)N(C)C [Example 32, 4-(2-(2-(3-((1-hydroxycyclopropyl)methylamino)-3-oxopropyl)-5-methyl-1,2,3,4-tetrahydroisoquinolin-7-yl)-5H-pyrrolo[2,3-b]pyrazin-7-yl)-N, N, 2-trimethylbenzamide] |
| 49 nM | Cc1cc(-c2c[nH]c3ncc(-c4cc(C)c5c(c4)CN(CCC(=O)NCC(C)(C)O)CC5)nc23)ccc1C(=O)N(C)C [Example 33, 4-(2-(2-(3-(2-hydroxy-2-methylpropylamino)-3-oxopropyl)-5-methyl-1,2,3,4-tetrahydroisoquinolin-7-yl)-5H-pyrrolo[2,3-b]pyrazin-7-yl)-N, N, 2-trimethylbenzamide] |
| 42 nM | Cc1cc(-c2c[nH]c3ncc(-c4cc(C)c5c(c4)CN(CCC(=O)N[C@@H]4CCOC4)CC5)nc23)ccc1C(=O)N(C)C [Example 34, (R)—N, N, 2-trimethyl-4-(2-(5-methyl-2-(3-oxo-3-(tetrahydrofuran-3-ylamino)propyl)-1,2,3,4-tetrahydroisoquinolin-7-yl)-5H-pyrrolo[2,3-b]pyrazin-7-yl)benzamide] |
| 19 nM | Cc1cc(-c2cnc3[nH]cc(-c4ccc(C(=O)N(C)C[C@@H]5CCOC5)cc4)c3n2)cc2c1CCN(C)C2 [Example 35, (S)-4-(2-(2,5-dimethyl-1,2,3,4-tetrahydroisoquinolin-7-yl)-5H-pyrrolo[2,3-b]pyrazin-7-yl)-N-methyl-N-((tetrahydrofuran-3-yl)methyl)benzamide] |
| 39 nM | Cc1cc(-c2cnc3[nH]cc(-c4ccc(C(=O)N(C)C[C@@H]5CCOC5)cc4)c3n2)cc2c1CCN(CCN1CCC(C)(O)CC1)C2 [Example 36, (S)-4-(2-(2-(2-(4-hydroxy-4-methylpiperidin-1-yl)ethyl)-5-methyl-1,2,3,4-tetrahydroisoquinolin-7-yl)-5H-pyrrolo[2,3-b]pyrazin-7-yl)-N-methyl-N-((tetrahydrofuran-3-yl)methyl)benzamide] |
| 35 nM | Cc1cc(-c2cnc3[nH]cc(-c4ccc(C(=O)N(C)C)cc4)c3n2)cc2c1CCN(CCN1CCC(C)(O)CC1)C2 [Example 37, 4-(2-(2-(2-(4-hydroxy-4-methylpiperidin-1-yl)ethyl)-5-methyl-1,2,3,4-tetrahydroisoquinolin-7-yl)-5H-pyrrolo[2,3-b]pyrazin-7-yl)-N, N-dimethylbenzamide] |
| 186 nM | Cc1cc(-c2c[nH]c3ncc(-c4cc(C)c5c(c4)CN(C)CC5)nc23)ccc1C(=O)N(C)CC(C)(C)O [Example 39, 4-(2-(2,5-dimethyl-1,2,3,4-tetrahydroisoquinolin-7-yl)-5H-pyrrolo[2,3-b]pyrazin-7-yl)-N-(2-hydroxy-2-methylpropyl)-N, 2-dimethylbenzamide] |
| 17 nM | COCCCN(C)C(=O)c1ccc(-c2c[nH]c3ncc(-c4cc(C)c5c(c4)CN(C)CC5)nc23)cc1 [Example 40, 4-(2-(2,5-dimethyl-1,2,3,4-tetrahydroisoquinolin-7-yl)-5H-pyrrolo[2,3-b]pyrazin-7-yl)-N-(3-methoxypropyl)-N-methylbenzamide] |
| 54 nM | Cc1cc(-c2c[nH]c3ncc(-c4cc(C)c5c(c4)CN(CCC(=O)N[C@H]4CC[C@@H](O)CC4)CC5)nc23)ccc1C(=O)N(C)C [Example 41, 4-(2-(2-(3-((cis-4-hydroxycyclohexyl)amino)-3-oxopropyl)-5-methyl-1,2,3,4-tetrahydroisoquinolin-7-yl)-5H-pyrrolo[2,3-b]pyrazin-7-yl)-N, N, 2-trimethylbenzamide] |
| 85 nM | Cc1cc(-c2c[nH]c3ncc(-c4cc(C)c5c(c4)CN(CCC(=O)NCCN4CCN(C)CC4)CC5)nc23)ccc1C(=O)N(C)C [Example 42, N, N, 2-trimethyl-4-(2-(5-methyl-2-(3-((2-(4-methylpiperazin-1-yl)ethyl)amino)-3-oxopropyl)-1,2,3,4-tetrahydroisoquinolin-7-yl)-5H-pyrrolo[2,3-b]pyrazin-7-yl)benzamide] |
| 37 nM | Cc1cc(-c2c[nH]c3ncc(-c4cc(C)c5c(c4)CN(CCC(=O)NC4CC4)CC5)nc23)ccc1C(=O)N(C)C [Example 43, 4-(2-(2-(3-(cyclopropylamino)-3-oxopropyl)-5-methyl-1,2,3,4-tetrahydroisoquinolin-7-yl)-5H-pyrrolo[2,3-b]pyrazin-7-yl)-N, N, 2-trimethylbenzamide] |
| 82 nM | COCCCNC(=O)CCN1CCc2c(C)cc(-c3cnc4[nH]cc(-c5ccc(C(=O)N(C)C)c(C)c5)c4n3)cc2C1 [Example 44, 4-(2-(2-(3-((3-methoxypropyl)amino)-3-oxopropyl)-5-methyl-1,2,3,4-tetrahydroisoquinolin-7-yl)-5H-pyrrolo[2,3-b]pyrazin-7-yl)-N, N, 2-trimethylbenzamide] |
| 52 nM | Cc1cc(-c2c[nH]c3ncc(-c4cc(C)c5c(c4)CN(CCC(=O)NCCO)CC5)nc23)ccc1C(=O)N(C)C [Example 45, 4-(2-(2-(3-((2-hydroxyethyl)amino)-3-oxopropyl)-5-methyl-1,2,3,4-tetrahydroisoquinolin-7-yl)-5H-pyrrolo[2,3-b]pyrazin-7-yl)-N, N, 2-trimethylbenzamide] |
| 65 nM | Cc1cc(-c2c[nH]c3ncc(-c4cc(C)c5c(c4)CN(CCC(=O)NCCCO)CC5)nc23)ccc1C(=O)N(C)C [Example 46, 4-(2-(2-(3-((3-hydroxypropyl)amino)-3-oxopropyl)-5-methyl-1,2,3,4-tetrahydroisoquinolin-7-yl)-5H-pyrrolo[2,3-b]pyrazin-7-yl)-N, N, 2-trimethylbenzamide] |
| 22 nM | Cc1cc(-c2cnc3[nH]cc(-c4ccc(C(=O)N(C)C)cc4)c3n2)cc2c1CCN(CCC(=O)NC1CC1)C2 [Example 47, 4-(2-(2-(3-(cyclopropylamino)-3-oxopropyl)-5-methyl-1,2,3,4-tetrahydroisoquinolin-7-yl)-5H-pyrrolo[2,3-b]pyrazin-7-yl)-N, N-dimethylbenzamide] |
| 65 nM | Cc1cc(-c2cnc3[nH]cc(-c4ccc(C(=O)N(C)C)cc4)c3n2)cc2c1CCN(CCC(=O)N[C@H]1CC[C@H](O)CC1)C2 [Example 48, 4-(2-(2-(3-(((1r, 4r)-4-hydroxycyclohexyl)amino)-3-oxopropyl)-5-methyl-1,2,3,4-tetrahydroisoquinolin-7-yl)-5H-pyrrolo[2,3-b]pyrazin-7-yl)-N, N-dimethylbenzamide] |
| 67 nM | Cc1cc(-c2cnc3[nH]cc(-c4ccc(C(=O)N(C)C)cc4)c3n2)cc2c1CCN(CCC(=O)NCCN1CCN(C)CC1)C2 [Example 49, N, N-dimethyl-4-(2-(5-methyl-2-(3-((2-(4-methylpiperazin-1-yl)ethyl)amino)-3-oxopropyl)-1,2,3,4-tetrahydroisoquinolin-7-yl)-5H-pyrrolo[2,3-b]pyrazin-7-yl)benzamide] |
